In one assay the target is T1, rat CB2 receptor (rCB2) (Rattus norvegicus, UniProt Q9QZN9).
T1 sequence (Q9QZN9 1-360): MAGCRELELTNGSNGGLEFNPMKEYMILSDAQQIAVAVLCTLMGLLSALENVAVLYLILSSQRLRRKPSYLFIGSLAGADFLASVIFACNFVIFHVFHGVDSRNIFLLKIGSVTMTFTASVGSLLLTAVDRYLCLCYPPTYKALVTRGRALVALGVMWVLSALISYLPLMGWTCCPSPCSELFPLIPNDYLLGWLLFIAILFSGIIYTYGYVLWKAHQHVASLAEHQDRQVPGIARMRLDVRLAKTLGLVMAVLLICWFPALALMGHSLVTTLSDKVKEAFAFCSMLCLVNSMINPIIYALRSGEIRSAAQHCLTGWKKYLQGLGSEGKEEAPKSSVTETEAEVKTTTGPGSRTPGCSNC
Briefly: cell-based. In kind it is cell-based. The note with it: for +/− RCB2: agonist or inverse agonist at rCB2. In outline: (§1)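 Readout: LANCE TR-FRET cAMP, back-calculated from a concurrent standard curve and scaled between forskolin-only and forskolin + 1 μM CP55,940 wells. EC50 and intrinsic activity came from four-parameter fits.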

Assay [1] concerns the target human CB1 receptor (hCB1) (Homo sapiens, UniProt P21554). The experiment in a line: cell-based. In kind it is cell-based. The gist of the method: as §1

This note sets out measurements from patent US7517874B2 (priority 2007, dated 2009).

pEC50: −log10 of the molar value. Like-named read-outs stand apart in the source and are kept apart here.

Chain of human CB1 receptor (hCB1) (P21554 whole entry): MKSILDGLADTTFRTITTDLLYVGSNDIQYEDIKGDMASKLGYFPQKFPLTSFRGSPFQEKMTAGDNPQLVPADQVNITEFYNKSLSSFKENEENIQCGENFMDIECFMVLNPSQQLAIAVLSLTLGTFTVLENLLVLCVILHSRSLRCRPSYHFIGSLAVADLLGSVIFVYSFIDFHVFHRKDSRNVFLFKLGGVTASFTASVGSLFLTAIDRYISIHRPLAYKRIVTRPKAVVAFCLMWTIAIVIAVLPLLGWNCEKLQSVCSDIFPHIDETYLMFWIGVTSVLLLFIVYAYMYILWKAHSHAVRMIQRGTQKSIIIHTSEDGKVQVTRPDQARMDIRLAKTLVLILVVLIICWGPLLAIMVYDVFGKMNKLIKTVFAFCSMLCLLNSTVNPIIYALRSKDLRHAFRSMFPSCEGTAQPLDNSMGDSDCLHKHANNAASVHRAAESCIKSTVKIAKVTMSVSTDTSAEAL

As usually defined, the pEC50 is the EC50 on a negative log10 scale, so that one unit is a factor of ten. As to `CCS(=O)(=O)N1CCn2c(-c3ccc(Cl)cc3)nc(C(=O)NCCC(C)C)c2C1` [Compound 116, 3-(4-chlorophenyl)-7-(ethylsulfonyl)-N-isopentyl-5,6,7,8-tetrahydroimidazo[1,5-a]pyrazine-1-carboxamide], the “+/− RCB2” value at rat CB2 receptor (rCB2) was “−”. This compound also gave a pEC50 in assay [1] of under 5.00.
Consider `CNC(=O)[C@@H](NC(=O)c1nc(-c2cc3ccccc3o2)n2c1CN(C)CCC2)C(C)(C)C` [Compound 351, (S)-3-(benzofuran-2-yl)-N-(3,3-dimethyl-1-(methylamino)-1-oxobutan-2-yl)-8-methyl-6,7,8,9-tetrahydro-5H-imidazo[1,5-a][1,4]diazepine-1-carboxamide], for which, on rat CB2 receptor (rCB2), the “+/− RCB2” value is on record as “+”. The compound further showed a negative-log EC50 (pEC50) in assay [1] of under 5.00.
On to `CN1CCCn2c(-c3ccccc3)nc(C(=O)Nc3cc(C(C)(C)C)on3)c2C1` [Compound 595, N-(5-tert-butylisoxazol-3-yl)-8-methyl-3-phenyl-6,7,8,9-tetrahydro-5H-imidazo[1,5-a][1,4]diazepine-1-carboxamide], for which, at rat CB2 receptor (rCB2), the “+/− RCB2” value was “−”. The same compound had a negative-log EC50 (pEC50) in assay [1] of under 5.00.
With `CNC(=O)[C@@H](NC(=O)c1nc(-c2cccc(OC(F)(F)F)c2)n2c1CN(C)CCC2)C(C)(C)C` [Compound 338, (S)-N-(3,3-dimethyl-1-(methylamino)-1-oxobutan-2-yl)-8-methyl-3-(3-(trifluoromethoxy)phenyl)-6,7,8,9-tetrahydro-5H-imidazo[1,5-a][1,4]diazepine-1-carboxamide], the pEC50 (at rat CB2 receptor (rCB2); in assay [1]) was under 5.00 throughout.
In the case of `CNC(=O)[C@@H](NC(=O)c1nc(-c2cc(Cl)ccc2OC)n2c1CN(C)CCC2)C(C)(C)C` [Compound 327, (S)-3-(5-chloro-2-methoxyphenyl)-N-(3,3-dimethyl-1-(methylamino)-1-oxobutan-2-yl)-8-methyl-6,7,8,9-tetrahydro-5H-imidazo[1,5-a][1,4]diazepine-1-carboxamide], the “+/− RCB2” value at rat CB2 receptor (rCB2) is “+”. In assay [1], this compound showed a pEC50 of under 5.00.
Regarding `CCCc1nc(C(=O)N[C@H](C(=O)NC)C(C)(C)C)c2n1CCN(C)C2` [Compound 304, (S)-N-(3,3-dimethyl-1-(methylamino)-1-oxobutan-2-yl)-7-methyl-3-propyl-5,6,7,8-tetrahydroimidazo[1,5-a]pyrazine-1-carboxamide], the “+/− RCB2” value at rat CB2 receptor (rCB2) is listed as “+”. In assay [1], this compound gave a pEC50 of under 5.00.
On to `CNC(=O)[C@@H](NC(=O)c1nc(-c2ccc(C)cc2F)n2c1CN(C)CCC2)C(C)(C)C` [Compound 340, (S)-N-(3,3-dimethyl-1-(methylamino)-1-oxobutan-2-yl)-3-(2-fluoro-4-methylphenyl)-8-methyl-6,7,8,9-tetrahydro-5H-imidazo[1,5-a][1,4]diazepine-1-carboxamide], for which the “+/− RCB2” value at rat CB2 receptor (rCB2) is given as “+”. This compound had a negative-log EC50 (pEC50) in assay [1] of under 5.00.
Broadly, the EC50 is the concentration that produces a half-maximal response. For the compound `CN1CCn2c(-c3ccccc3)nc(C(=O)CC(C)(C)C)c2C1` [Compound 292, 3,3-dimethyl-1-(7-methyl-3-phenyl-5,6,7,8-tetrahydroimidazo[1,5-a]pyrazin-1-yl)butan-1-one], the “+/− RCB2” value at rat CB2 receptor (rCB2) is given as “−”. Further, the EC50 in assay [1] (groups >100 nM-10 μM and >10 μM, cAMP, CHO-K1 hCB1, read-out: EC50 HCB1) is over 10000 nM.
As to `C=Cc1nc(C(=O)N[C@H](C(=O)NC)C(C)(C)C)c2n1CCN(C)C2` [Compound 266, (S)-N-(3,3-dimethyl-1-(methylamino)-1-oxobutan-2-yl)-7-methyl-3-vinyl-5,6,7,8-tetrahydroimidazo[1,5-a]pyrazine-1-carboxamide], at rat CB2 receptor (rCB2), the “+/− RCB2” value was “−”. The same compound showed a negative-log EC50 (pEC50) in assay [1] of under 5.00.
Consider `CNC(=O)[C@@H](NC(=O)c1nc(-c2cc(F)cc(C(N)=O)c2)n2c1CN(C)CCC2)C(C)(C)C` [Compound 416, (S)-3-(3-carbamoyl-5-fluorophenyl)-N-(3,3-dimethyl-1-(methylamino)-1-oxobutan-2-yl)-8-methyl-6,7,8,9-tetrahydro-5H-imidazo[1,5-a][1,4]diazepine-1-carboxamide], for which the “+/− RCB2” value at rat CB2 receptor (rCB2) is “+”. The compound also gave a negative logarithm of the EC50 (pEC50) in assay [1] of under 5.00.
